Molecular target: T1, E. coli yfhC polypeptide (Escherichia coli, UniProt P68398)
T1 construct: made in house; negative controls used a pBAD-derived vector
Test: yfhC polypeptide deamination of a defined substrate, inosine monitored by HPLC of the digest
Type: biochemical
Conditions: 2 μg yfhC polypeptide (cell lysate), 20 μg stem loop or 8 μg tRNA^Arg2, 50 μl, 30 min
Protocol: The experimental protocol consisted of two steps. First an in vitro reaction was conducted using a defined yfhC substrate and the yfhC polypeptide supplied as a lysate from an over-producing strain of bacteria. The reactions were then digested enzymatically to mononucleotides with a mixture of three enzymes (nuclease P1, snake venom phosphodiesterase and alkaline phosphatase and the resultant digest analyzed by HPLC to monitor for the appearance of inosine (the product of the yfhC polypeptide deamination reaction).
In this experiment, a series of reactions were run with a synthetic RNA corresponding to the following anticodon stem loop 17-mer of E. coli tRNA^Arg2, in both the linear and folded form (the anticodon is underlined):
All reactions were carried out with the indicated amounts of yfhC substrate and yfhC polypeptide (in the form of a cell lysate) in a final volume of 50 μl. For experiments employing refolded yfhC substrate, the substrate was first boiled and slowly cooled in refolding buffer (30 mM HEPES, pH 7.9, 150 mM NaCl, 10 mM Mg Cl2) prior to adding to the reaction mixture. […] The pellets were resuspended in 50 μl H2O, digested with a mixture of nuclease P1, snake venom phosphodiesterase 1 and alkaline phosphatase (all enzymes in excess) and analyzed by HPLC (Develosil C-30 column, 2 mm×250 mm; Nomura Chemical, Japan). […]

T1 sequence (P68398 whole entry): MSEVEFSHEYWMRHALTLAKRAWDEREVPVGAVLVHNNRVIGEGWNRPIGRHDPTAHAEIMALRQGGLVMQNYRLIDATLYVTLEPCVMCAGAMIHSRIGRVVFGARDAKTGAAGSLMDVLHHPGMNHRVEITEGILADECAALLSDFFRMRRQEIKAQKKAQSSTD

## stem loop: synthetic RNA 17-mer corresponding to the anticodon stem loop of E. coli tRNA^Arg2, linear and refolded; yfhC substrate (CNCGGCNACGAACCGAG; RNA, backbone, methylation of C and the base at N not given here; n positions are unspecified nucleotides, further chemistry not fully specified)
  activity as yfhC substrate (inosine peak in HPLC elution profile): greatest-activity
